Experimental data published in paper PMC6440464 (PeerJ, 2019).
“And” between values parts separate entries of the source, which are not always exact repeats. Equal entries are not always repeated.

Assay: Pharmacokinetics study after separate oral administration in rats (HPLC-MS of plasma)
Type: in vivo, Sprague-Dawley rats
Conditions: for Plasma concentrations: individual rats NO. 1-5; for AUC(0-t) / Cmax / MRT(0-t) / Tmax / t1/2z / CLz/F: labelled substance = analyte, individual rats No1-No5
Method: A total of 15 SPF Sprague-Dawley rats (SD, male, 190–210 g) were provided by Sino-British Sippr/BK Lab Animal Company Ltd. (Shanghai, China). The rats were kept in standard conditions (22–26 °C; 40–60% relative humidity; 12 h light/dark cycle). Throughout the rearing period, the animals had access to food and water ad libitum. Animal experiments were conducted in accordance with the standard ethical guidelines of the Laboratory Animal Management Committee of Jiangsu Province (SYXK (SU) 2016-0011).
Following 1 week of adaptation, the rats were fasted for about 12 h before dosing, with free access to water. […] After administration of the first dose, blood samples were taken from the retro-orbital vein at 0, 5, 15, 30, 60, 90, 120, 180, 240, 360, 480, and 1,440 min and collected in heparinized tubes. The samples were centrifuged at 3,500 rpm for 10 min at 4 °C and the plasma was stored at −80 °C until analysis.
An Agilent 1,200 series HPLC system (Agilent Technologies, Waldbronn, Germany) equipped with a quaternary pump on-line degasser, auto-sampler and column oven, and an SL G1946D quadruple mass spectrometer (Agilent Technologies, Santa Clara, CA, USA) equipped with an electrospray ionization (ESI) source, were used for separation and detection. Data were acquired and analyzed using Agilent ChemStation Software Version A.01.00 (Agilent Technologies, Santa Clara, CA, USA).
The separation was carried out with an Amethyst C18-H column (150 × 4.6 mm, 5 μm, Sepax Technologies, Newark, DE, USA) with a guard column SB-C18 (10 × 4.6 mm, 5 μm, Phenomenex Technologies, Torrance, USA) at a constant temperature of 25 °C.
The mass spectra were acquired using ESI interfaced to a single quadrupole mass spectrometer. The ionization conditions were as follows: drying gas (N2) flow rate of 11 L/min, drying gas temperature of 350 °C, nebulizing gas (N2) pressure of 35 psi, capillary voltage of 3,500 V, quad temperature of 100 °C, and fragment voltage of 110 V. A series of m/z were monitored using a timed program according to the retention times and characteristic ions for the corresponding HPLC-MS peak obtained by scanning from m/z 100–1,000 in the standard sample.
Briefly, an aliquot of plasma sample (100 μL) was spiked with 5% formic acid (10 μL) in centrifuge tube. Subsequently, hydrochloric acid (2 mol/L, 10 μL) and IS solution (960.00 ng/mL, 20 μL) were added. Then ethyl acetate/n-butyl alcohol (1:1 v/v; 1,000 μL) was used to extract the components. The samples were then homogenized by vortex mixing and centrifuged for 10 min at 14,000 rpm. After centrifugation, 800 μL of supernatant was transferred to another centrifuge tube and the sample was evaporated to dryness. The residues were dissolved in 100 μL of methanol and centrifuged for 10 min at 12,000 rpm. 50 μL of the supernatant was transferred to the vial and an aliquot of 5 μL was injected into the HPLC-MS system for analysis.
DAS 2.0 (Chinese Pharmacological Association, Shanghai, China) was used to calculate the pharmacokinetic parameters using the non-compartment model, including the area under curve (AUC), mean residence time (MRT), half-life ( t1/2z), clearance rate (CL), maximum plasma concentration (Cmax), and time (Tmax). All results are expressed as mean ± standard deviation (SD). One way analysis of variance followed by […] was used for comparison of different groups using Graph pad prism 5 software. A p-value of <0.05 was considered statistically significant.

[1] = IQ group (oral IQ 50 mg/kg), rat plasma
[2] = QG group (oral QG 50 mg/kg), rat plasma
[3] = Qr group (oral Qr 50 mg/kg), rat plasma

Q: For `O=C(O)[C@H]1O[C@@H](Oc2c(-c3ccc(O)c(O)c3)oc3cc(O)cc(O)c3c2=O)[C@H](O)[C@@H](O)[C@@H]1O` [QG, Quercetin-3-O-β-D-glucuronide], which Plasma concentrations (IQ group (oral IQ 50 mg/kg), 5 min) is on record?
A: 0.7646 µg/mL and 1.0569 µg/mL

Q: What about the Plasma concentrations (IQ group (oral IQ 50 mg/kg), 120 min) of the same compound?
A: 0.6158 µg/mL and 0.5082 µg/mL and 0.7807 µg/mL and 0.6334 µg/mL

Q: And the Plasma concentrations (IQ group (oral IQ 50 mg/kg), 180 min)?
A: 0.8736 µg/mL and 0.5334 µg/mL and 0.3826 µg/mL and 0.3965 µg/mL and 0.7922 µg/mL

Q: And the Plasma concentrations (IQ group (oral IQ 50 mg/kg), 240 min)?
A: 0.2228 µg/mL and 0.5709 µg/mL and 0.5714 µg/mL and 0.4349 µg/mL and 0.8190 µg/mL

Q: And the Plasma concentrations (IQ group (oral IQ 50 mg/kg), 360 min)?
A: 0.1194 µg/mL and 0.8107 µg/mL and 0.4137 µg/mL and 0.6925 µg/mL and 0.8505 µg/mL

Q: What about the Plasma concentrations (IQ group (oral IQ 50 mg/kg), 480 min) of the same compound?
A: 0.4225 µg/mL and 0.4165 µg/mL and 0.1673 µg/mL and 0.2461 µg/mL and 0.7377 µg/mL

Q: And the Plasma concentrations (IQ group (oral IQ 50 mg/kg), 1440 min)?
A: 0.0935 µg/mL and 0.0847 µg/mL and 0.0809 µg/mL and 0.0651 µg/mL and 0.3494 µg/mL

Q: What about the “AUC(0-t)” value [1] of the same compound?
A: 597.432 mg·min/L and 994.801 mg·min/L and 564.315 mg·min/L and 660.84 mg·min/L

Q: And the Cmax [1]?
A: 4.534 µg/mL and 5.953 µg/mL and 2.825 µg/mL and 2.8 µg/mL and 3.414 µg/mL

Q: What about the “MRT(0-t)” value [1] of the same compound?
A: 4.64393 h and 8.49298 h and 6.06248 h and 5.82378 h

Q: And the Tmax [1]?
A: 30 min

Q: And the t1/2z [1]?
A: 7.29975 h and 8.1253 h and 14.3264 h and 6.69975 h and 7.17603 h

Q: What about the “Detection in rat plasma” value (IQ group: oral IQ 50 mg/kg) of the same compound?
A: measured

Q: And the Plasma concentrations (QG group (oral QG 50 mg/kg), 5 min)?
A: 0.0814 µg/mL and 0.1791 µg/mL and 0.1562 µg/mL and 0.4345 µg/mL and 0.2229 µg/mL

Q: And the Plasma concentrations (QG group (oral QG 50 mg/kg), 120 min)?
A: 0.0799 µg/mL and 0.2388 µg/mL and 0.5950 µg/mL and 0.1120 µg/mL and 0.2189 µg/mL

Q: And the Plasma concentrations (QG group (oral QG 50 mg/kg), 180 min)?
A: 0.7950 µg/mL and 1.4327 µg/mL and 2.4032 µg/mL and 0.2061 µg/mL and 1.3248 µg/mL

Q: And the Plasma concentrations (QG group (oral QG 50 mg/kg), 240 min)?
A: 1.3178 µg/mL and 2.6305 µg/mL and 2.4984 µg/mL and 0.6490 µg/mL and 1.6470 µg/mL

Q: And the Plasma concentrations (QG group (oral QG 50 mg/kg), 360 min)?
A: 0.1076 µg/mL and 2.2429 µg/mL and 3.2289 µg/mL and 1.3605 µg/mL and 1.5082 µg/mL

Q: And the Plasma concentrations (QG group (oral QG 50 mg/kg), 480 min)?
A: 0.0874 µg/mL and 0.7211 µg/mL and 1.7586 µg/mL and 0.4951 µg/mL and 0.6594 µg/mL

Q: What about the Plasma concentrations (QG group (oral QG 50 mg/kg), 1440 min) of the same compound?
A: 0.0575 µg/mL and 0.2816 µg/mL and 0.1651 µg/mL and 0.1404 µg/mL and 0.1134 µg/mL

Q: And the “AUC(0-t)” value [2]?
A: 268.635 mg·min/L and 1176.18 mg·min/L and 1861.7 mg·min/L and 635.402 mg·min/L and 871.691 mg·min/L

Q: And the CLz/F [2]?
A: 0.17 L/min/kg and 0.038 L/min/kg and 0.026 L/min/kg and 0.067 L/min/kg and 0.054 L/min/kg

Q: And the Cmax [2]?
A: 1.318 µg/mL and 2.631 µg/mL and 3.229 µg/mL and 1.365 µg/mL and 1.647 µg/mL

Q: And the “MRT(0-t)” value [2]?
A: 7.8607 h and 7.11965 h and 7.95713 h and 7.028 h

Q: What about the t1/2z [2] of the same compound?
A: 6.12582 h and 5.27942 h and 8.9772 h and 6.00847 h

Q: What about the “Detection in rat plasma” value (QG group: oral QG 50 mg/kg) of the same compound?
A: could be detected in rat plasma

Q: What about the CL (QG group: oral QG 50 mg/kg, rat plasma, mean ± SD, n = 5) of the same compound?
A: 4.26 ± 3.42 L/h/kg

Q: And the Plasma concentrations (Qr group (oral Qr 50 mg/kg), 5 min)?
A: 0.3755 µg/mL and 1.9735 µg/mL and 1.3717 µg/mL and 1.2834 µg/mL

Q: And the Plasma concentrations (Qr group (oral Qr 50 mg/kg), 120 min)?
A: 1.6399 µg/mL and 0.4649 µg/mL and 2.4126 µg/mL and 2.1713 µg/mL and 0.6055 µg/mL

Q: And the Plasma concentrations (Qr group (oral Qr 50 mg/kg), 180 min)?
A: 1.1714 µg/mL and 0.4542 µg/mL and 1.7560 µg/mL and 4.1932 µg/mL and 1.1826 µg/mL

Q: What about the Plasma concentrations (Qr group (oral Qr 50 mg/kg), 240 min) of the same compound?
A: 1.0033 µg/mL and 1.3275 µg/mL and 1.0605 µg/mL and 1.9477 µg/mL and 0.8307 µg/mL

Q: What about the Plasma concentrations (Qr group (oral Qr 50 mg/kg), 360 min) of the same compound?
A: 1.0844 µg/mL and 1.0457 µg/mL and 0.9781 µg/mL and 1.2903 µg/mL and 0.5532 µg/mL

Q: What about the Plasma concentrations (Qr group (oral Qr 50 mg/kg), 480 min) of the same compound?
A: 0.9932 µg/mL and 0.4529 µg/mL and 0.7247 µg/mL and 0.7786 µg/mL and 0.5843 µg/mL

Q: What about the Plasma concentrations (Qr group (oral Qr 50 mg/kg), 1440 min) of the same compound?
A: 0.1552 μg/mL and 0.4031 μg/mL and 0.5308 μg/mL and 0.0000 μg/mL (2×)

Q: And the “AUC(0-t)” value [3]?
A: 1269.04 mg·min/L and 1058.23 mg·min/L and 1705.01 mg·min/L and 1261.98 mg·min/L and 455.81 mg·min/L

Q: And the CLz/F [3]?
A: 0.037 L/min/kg and 0.034 L/min/kg (2×) and 0.019 L/min/kg and 0.093 L/min/kg

Q: And the Cmax [3]?
A: 4.415 µg/mL and 6.9413 µg/mL and 9.165 µg/mL and 9.211 µg/mL and 2.54 µg/mL

Q: What about the “MRT(0-t)” value [3] of the same compound?
A: 6.1781 h and 7.68988 h and 6.69422 h and 2.72245 h and 3.04182 h

Q: And the Tmax [3]?
A: 30 min and 60 min (2×)

Q: What about the t1/2z [3] of the same compound?
A: 7.30138 h and 12.1634 h and 20.1775 h and 3.02307 h and 2.81598 h

Q: And the “Detection in rat plasma” value (Qr group: oral Qr 50 mg/kg)?
A: detected
